Results on nine molecules are retold here after patent US5215972A, “Steroids” (Hoffmann-La Roche Inc., priority 1989, dated 1993).

Structures can show the parent of a compound that is named as a salt. Where two headings read alike, the source gives them in different places.

The test system of data set [1] is intestinal resorption of cholesterol. The data set is described as follows: Inhibition of intestinal resorption of [26-^14 C]-cholesterol (CHORES) in squirrel monkeys. The following applies: Primates, po, 60 h, 100 μmol/kg p.o., percent of control values determined prior to medication (pre-period), feces collected 2.5 days. In kind it is in vivo. The source says:
Squirrel monkeys are orally administered the substances to be investigated together with a test feed containing a protein, starch, triolein and [26-^14 C]-cholesterol. Thereafter, the feces is collected for 2.5 days. The difference between the administered and the collected radioactive cholesterol determined in the feces is taken as the measurement of resorbed cholesterol. The cholesterol resorption (CHORES) is expressed in percentages of the control values determined prior to the medication.
(§1) The results which have been obtained with some representative products in accordance with the invention are reproduced in Table I. For each of the compounds indicated in Table I the cholesterol resorption, determined at a dosage of 100 μmol/kg p.o., is given in percentages of the control values determined prior to the medication (pre-period). Moreover, the Table contains data concerning the acute toxicity of the compounds investigated (LD50 in mg/kg in the case of single oral or intravenous administration to mice).

Data set [2] can be described thus: Acute toxicity, single oral or intravenous administration to mice. The following applies: mouse, in vivo.
Text: as §1

Setting [3] is: i.v., single intravenous administration to mice, read-out: LD50 i.v.
Setting [4] is: p.o., single oral administration to mice, read-out: LD50 p.o.

The molecule `CC[C@H](/C=C/[C@@H](C)[C@H]1CC[C@H]2[C@@H]3CC=C4C[C@@H](OCCOP(=O)([O-])OCC[N+](C)(C)C)CC[C@]4(C)[C@H]3CC[C@]12C)C(C)C` [Example 2r, O-[hydroxy-[2-(stigmasta-5,22-dien-3β-yloxy)ethoxy]phosphinyl]cholinehydroxide internal salt] displayed a response vs control in vivo at 100 µmol/kg in data set [1] of 37%. The results for the LD50 in data set [2] (setting [3]) and in data set [2] (setting [4]) were 500 mg/kg and 4000 mg/kg, respectively.

As to `CC[C@H](CC[C@@H](C)[C@H]1CC[C@H]2[C@@H]3CC[C@H]4C[C@@H](OC(=O)NCCOP(=O)([O-])OCC[n+]5ccccc5)CC[C@]4(C)[C@H]3CC[C@]12C)C(C)C` [Example 6, 1-[2-[[hydroxy-[2-[1-(5α-stigmastan-3β-yloxy)-formamido]ethoxy]phosphinyl]oxy]ethyl]pyridinum hydroxide internal salt], in data set [1], the response vs control in vivo at 100 µmol/kg came out at 31%. Further, in data set [2] (setting [4]), the 50% lethal dose (LD50) was found to be 4000 mg/kg.

In data set [1], `CC[C@H](CC[C@@H](C)[C@H]1CC[C@H]2[C@@H]3CC[C@H]4C[C@@H](OC(=O)OCCOP(=O)([O-])OCC[N+](C)(C)C)CC[C@]4(C)[C@H]3CC[C@]12C)C(C)C` [Example 2a, O-[[2-[[(5α-stigmastan-3β-yloxy)carbonyl]oxy]ethoxy]hydroxyphosphinyl]choline hydroxide internal salt] showed a response vs control in vivo at 100 µmol/kg of 38%. In addition, the LD50 in data set [2] (setting [3]) is 250 mg/kg; in data set [2] (setting [4]), 4000 mg/kg.

The molecule `CC[C@H](CC[C@@H](C)[C@H]1CC[C@H]2[C@@H]3CC[C@H]4C[C@@H](OC(=O)NCCOP(=O)([O-])OCC[N+](C)(C)C)CC[C@]4(C)[C@H]3CC[C@]12C)C(C)C` [Example 5, O-[hydroxy-[2-[1-(5α-stigmastan-3β-yloxy)formamido]ethoxy]phosphinyl]choline hydroxide internal salt] displayed a response vs control in vivo at 100 µmol/kg in data set [1] of 40%.

In data set [1], `CC[C@H](CC[C@@H](C)[C@H]1CC[C@H]2[C@@H]3CC[C@H]4C[C@@H](OCCOCCOP(=O)([O-])OCC[N+](C)(C)C)CC[C@]4(C)[C@H]3CC[C@]12C)C(C)C` [Example 4a, O-[hydroxy-[2-[2-(3β-stigmastanyloxy)ethoxy]ethoxy]phosphinyl]cholinehydroxide internal salt] registered a response vs control in vivo at 100 µmol/kg of 30%.

`CC[C@H](/C=C/[C@@H](C)[C@H]1CC[C@H]2[C@@H]3CC=C4C[C@@H](OC(=O)NCCOP(=O)([O-])OCC[N+](C)(C)C)CC[C@]4(C)[C@H]3CC[C@]12C)C(C)C` [Example 7a, O-[hydroxy-[2-[1-[(E)-stigmasta-5,22-dien-3β-yloxy]formamido]ethoxy]phosphinyl]choline hydroxide internal salt] displayed a response vs control in vivo at 100 µmol/kg in data set [1] of 35%.

With `CC[C@H](CC[C@@H](C)[C@H]1CC[C@H]2[C@@H]3CC=C4C[C@@H](OC(=O)OCCOP(=O)([O-])OCC[N+](C)(C)C)CC[C@]4(C)[C@H]3CC[C@]12C)C(C)C` [Example 16, O-[hydroxy-[2-[[(stigmast-5-en-3β-yloxy)carbonyl]oxy]ethoxy]-phosphinyl]choline hydroxide internal salt], the response vs control in vivo at 100 µmol/kg in data set [1] was 40%.

On to `CC[C@H](CC[C@@H](C)[C@H]1CC[C@H]2[C@@H]3CC[C@H]4C[C@@H](OC(=O)CCCOP(=O)([O-])OCC[N+](C)(C)C)CC[C@]4(C)[C@H]3CC[C@]12C)C(C)C` [Example 2k, O-[hydroxy-[3-[(3β-stigmastanyloxy)carbonyl]propoxy]phosphinyl]choline hydroxide internal salt], for which the response vs control in vivo at 100 µmol/kg in data set [1] was 39%. Also, the values for the LD50 in data set [2] (setting [3]) and in data set [2] (setting [4]) were 250 mg/kg and 4000 mg/kg, respectively.

`CC(C)CCC[C@@H](C)[C@H]1CC[C@H]2[C@@H]3CC=C4C[C@@H](OCCOP(=O)([O-])OCC[N+](C)(C)C)CC[C@]4(C)[C@H]3CC[C@]12C` [Example 2q, O-[[2-(cholest-5-en-3β-yloxy)ethoxy]hydroxyphosphinyl]choline hydroxide internal salt]: the response vs control in vivo at 100 µmol/kg in data set [1] worked out at 16%. In addition, the LD50 in data set [2] (setting [3]) came to 250 mg/kg; in data set [2] (setting [4]), 4000 mg/kg.
